Experimental data published in PMC3224213, “Bacterial membrane activity of α-peptide/β-peptoid chimeras: Influence of amino acid composition and chain length on the activity against different bacterial strains” (BMC Microbiology, 2011).

Assays:
[1] = test system: S. aureus; assay: ATP leakage bioluminescence assay; assay type: cell-based, Staphylococcus aureus; settings: for dose for the immediate maximum ATP release: 500 μg/mL expressed in μM; for intracellular ATP concentration: HEPES buffer pH 7.0, two independent experiments; for minimum chimera dose for the maximum immediate ATP release: doses 100, 250, 500, 1000 μg/mL, immediate release only, data not shown
Experimental: (§1) Pore formation as caused by peptide addition was determined by measuring ATP leakage from the bacterial cell using a bioluminescence assay. The assay was used to estimate differences between sub-typical chimeras 1, 2 and 3 on S. aureus and S. marcescens and to evaluate the effect of chain length of mixed type chimeras 4a, 4b and 4c on S. aureus. In brief, bacteria were grown in TSB at 37°C for 24 hours and then re-inoculated in TSB at 37°C for 6-8 hours until an absorbance at 546 nm of 2.5 for S. aureus and 2.0 for S. marcescens and then harvested (10 min at 2,000 × g). The bacteria were grown to a high absorbance since a high concentration of bacteria was necessary in order to get a measurable response in the ATP leakage assay. Cells were washed once in 50 mM potassium phosphate buffer (pH 7.0) and once in 50 mM HEPES buffer (pH 7.0), before the pellet was resuspended in HEPES buffer to an OD546 ~ 10, and then stored on ice. Before chimera addition bacteria were pre-incubated with 0.2% (w/v) glucose to energize the cells. In general a chimera dose of 1000 μg/mL (corresponding to 280-552 μM for all chimeras) was used for all assays; however, for determining dose response curves additional doses of 100 (28-55 μM), 250 (71-137 μM) and 500 (140-276 μM) μg/mL were tested, and only the immediate release was noted. Total ATP and extracellular ATP were determined with a luminometer […]. Intracellular volumes of S. aureus and S. marcescens (0.85 μm^3 and 1.7 μm^3, respectively) were subtracted from the total volume before calculating the extracellular ATP concentration; the intracellular ATP concentration could then be calculated from this and the total ATP. ATP leakage kinetics was determined on a bacterial suspension prepared as above. Samples were taken at time 0, 5, 10, 20, 30 and 60 minutes and viable counts determined. Both the ATP leakage assay and killing kinetics performed under the same assay conditions were performed in two independent experiments.

[2] = test system: S. aureus; assay: Time-kill under the conditions of the ATP leakage assay; assay type: cell-based, Staphylococcus aureus; settings: 1000 μg/mL chimera, same conditions as ATP assay, within the first 20 minutes, initial log ~9.5 per mL
Experimental: as §1

[3] = test system: twelve food-borne and clinical bacterial strains; assay type: cell-based
Experimental: Initial activity experiments were carried out with twelve strains from seven bacterial species representing common laboratory strains and clinical strains derived from both food-borne and nosocomial infections (Table 1). Stock cultures were stored at -80°C in 4% (w/v) glycerol, 0.5% (w/v) glucose, 2% (w/v) skimmed milk powder and 3% (w/v) tryptone soy powder. All experiments were carried out with bacteria incubated for one night (i.e. approximately 18 hours) at 37°C. Experiments were performed in cation-adjusted Mueller Hinton II broth (MHB) (Becton Dickinson 212322) adjusted to pH 7.4 or Tryptone Soy Broth (TSB) (Oxoid CM0129) for the ATP leakage assays. Brain Heart Infusion (BHI) (CM1135) with agar (VWR 20768.292) 1.5% as gelling agent was used throughout for colony plating.
The Minimum Inhibitory Concentration (MIC) of the chimeras was determined against the spectrum of bacteria using the microdilution method according to guidelines of the Clinical and Laboratory Standards Institute (CLSI). Chimera 1:2 serial dilutions were prepared from 1,024 μg/mL stock solutions to give a final range of 512-0.5 μg/mL in the wells. This corresponds to a final range of 144 to 0.14 μM for the heaviest chimera (i.e. chimera 4c) and of 282 to 0.27 μM for the lightest chimera (i.e. chimera 4a). Colonies grown overnight (i.e. approximately 18 hours) on BHI agar were suspended in 0.9% saline to give a turbidity of 0.13 at OD546 (approximately 1 × 10^8 CFU/mL), and then diluted in MHB pH 7.4 to a final concentration of 5 × 10^5 CFU/mL in each well. Following CLSI guidelines the media for testing of Listeria monocytogenes strains were supplemented with 2.5% lysed horse blood. Polypropylene plates (Nunc 442587) were used to minimize peptide binding and incubation time was 18-20 hours at 37°C. MIC was determined in a minimum of two technical replicates as the lowest concentration of the peptide analogue where no visible growth was found. The Minimum Bactericidal Concentration (MBC) was determined by plating 10 μL of the suspension from the first three wells without growth on BHI agar and incubating these for 24 hours at 37°C. MBC was the lowest concentration at which a 99.9% reduction in CFU/mL was observed. Activity is expressed in μmol/L to enable a direct comparison of analogues with different length (= size).

[4] = test system: S. marcescens; assay: ATP leakage bioluminescence assay; assay type: cell-based, Serratia marcescens; settings: 1000 μg/mL chimera
Experimental: as §1

[5] = test system: S. aureus; assay: Killing by chimera with or without EDTA pre-treatment; assay type: cell-based, Staphylococcus aureus
Text: (§2) Although there was no systematic difference in the MIC values between Gram-positive and -negative bacteria, we speculated that the Gram-negative outer membrane could act as a barrier to the penetration of AMPs, since polymyxin B resistance in S. marcescens has been linked to induced changes in the amount and composition of lipopolysaccharide (LPS) in the outer membrane. Moreover, similar resistance-conferring membrane alterations have also been seen for other bacteria in response to polymyxin B treatment. Accordingly, we studied how a membrane-destabilizing pre-treatment of S. marcescens, E. coli and S. aureus with the divalent metal cation-chelating agent EDTA would affect the killing caused by chimera 1. In these experiments we used a non-lethal 0.5 mM concentration of EDTA together with the non-lethal 1.5 μM concentration of the tested AMP analogue. […] In contrast, cell numbers of both S. marcescens and E. coli were reduced with 4-5 log from an initial value of log ~5.5 within the first 4 hours (not shown) upon treatment with a sub-lethal EDTA concentration together with the chimera.

[6] = test system: E. coli; assay: as above; assay type: cell-based, Escherichia coli
Text: as §2

[7] = test system: S. marcescens; assay: as above; assay type: cell-based, Serratia marcescens
Text: as §2

[8] = test system: Serratia marcescens ATCC 8100; assay: Killing kinetics (time-kill); assay type: cell-based; settings: S. marcescens
Experimental: (§3) In vitro time-kill curves for chimera 1, 2 and 3 were determined against S. aureus 8325 (MIC μM: chimera 1 5.9; chimera 2 2.8; chimera 3 18.7) and Serratia marcescens ATCC 8100 (MIC μM: chimera 1 46.8; chimera 2 45.5; chimera 3 150.0). These two bacterial strains represent organisms susceptible and tolerant to the chimeras, respectively. The bactericidal effect of the three chimeras was tested at MIC in two independent experiments; additionally the effect of chimera 2 was tested at ¼ and 1/2 times MIC. In brief, a suspension prepared from fresh overnight colonies as described above was transferred to 2 mL PBS or cation-adjusted MHB with chimera added (from a 10 × MIC solution) to give a similar bacterial cell density as employed in the MIC determination; the resulting suspension was then incubated at 37°C, 300 rpm. Samples for colony determination were taken at 0, 1, 2, 4, 6 and 8 hours after addition and transferred to a ten-fold dilution row. Colony counts were determined after incubation for 24 hours at 37°C.

[9] = test system: S. aureus 8325; assay: Killing kinetics (time-kill); assay type: cell-based, Staphylococcus aureus
Experimental: as §3

[10] = 1.5 μM chimera alone, data not shown
[11] = 0.5 mM EDTA and 1.5 μM chimera, within the first 4 hours, initial log ~5.5, not shown
[12] = range over strains, summary of Table 2

SMILES | ATP leakage (in words) ([1]; 1000 μg/mL chimera) | reduction in number of viable cells [2] | dose for the immediate maximum ATP release [1] [µM] | immediate ATP release ([1]; 1000 μg/mL chimera) | intracellular ATP concentration ([1]; 1000 μg/mL chimera) | minimum chimera dose for the maximum immediate ATP release [1] [µg/mL] | ATP leakage (in words) [4] | other results
CC(=O)N[C@@H](CCCCN)C(=O)N(CCC(=O)N[C@@H](CCCCNC(=N)N)C(=O)N(CCC(=O)N[C@@H](CCCCN)C(=O)N(CCC(=O)N[C@@H](CCCCNC(=N)N)C(=O)N(CCC(=O)N[C@@H](CCCCN)C(=O)N(CCC(=O)N[C@@H](CCCCNC(=N)N)C(=O)N(CCC(N)=O)[C@@H](C)c1ccccc1)[C@@H](C)c1ccccc1)[C@@H](C)c1ccccc1)[C@@H](C)c1ccccc1)[C@@H](C)c1ccccc1)[C@@H](C)c1ccccc1 [Chimera 4b] | same leakage pattern as induced by chimera 4a | no killing was observed | – | – | – | – | – | –
CC(=O)N[C@@H](CCCCN)C(=O)N(CCC(=O)N[C@@H](CCCCNC(=N)N)C(=O)N(CCC(=O)N[C@@H](CCCCN)C(=O)N(CCC(=O)N[C@@H](CCCCNC(=N)N)C(=O)N(CCC(N)=O)[C@@H](C)c1ccccc1)[C@@H](C)c1ccccc1)[C@@H](C)c1ccccc1)[C@@H](C)c1ccccc1 [Chimera 4a] | – | no killing was observed | 276 | approximately 15 μM | approx. 5 μM | 500 | – | MIC values times higher than those of chimera 4c ([3]; ratio of MIC to that of chimera 4c, over the strains of Table 2): 15-70 times
CC(=O)N[C@@H](CCCCNC(=N)N)C(=O)N(CCC(=O)N[C@@H](CCCCNC(=N)N)C(=O)N(CCC(=O)N[C@@H](CCCCNC(=N)N)C(=O)N(CCC(=O)N[C@@H](CCCCNC(=N)N)C(=O)N(CCC(=O)N[C@@H](CCCCNC(=N)N)C(=O)N(CCC(=O)N[C@@H](CCCCNC(=N)N)C(=O)N(CCC(N)=O)Cc1ccccc1)Cc1ccccc1)Cc1ccccc1)Cc1ccccc1)Cc1ccccc1)Cc1ccccc1 [Chimera 1] | caused leakage of ATP | – | – | – | rapidly approached zero | – | caused leakage of ATP | extracellular ATP concentration ([1]; 1000 μg/mL chimera, during the first minutes, HEPES buffer pH 7.0, OD546 ~ 10, two independent experiments): ~ 20 μM; intracellular ATP concentration ([4]; HEPES buffer pH 7.0, two independent experiments): rapidly approached zero; extracellular ATP concentration ([4]; during the first minutes, HEPES buffer pH 7.0, OD546 ~ 10, two independent experiments): ~ 5 μM; reduction in the number of viable cells, chimera alone [5, 10]: 0.5 log; viable cells, EDTA then chimera versus chimera only ([5]; 0.5 mM EDTA and 1.5 μM chimera): No discernable difference; reduction in the number of viable cells, chimera alone [6, 10]: 1.5 log; reduction of cell numbers, EDTA together with chimera [6, 11]: 4-5 log; reduction in the number of viable cells, chimera alone [7, 10]: 1.5 log; reduction of cell numbers, EDTA together with chimera [7, 11]: 4-5 log
CC(=O)N[C@@H](CCCCN)C(=O)N(CCC(=O)N[C@@H](CCCCNC(=N)N)C(=O)N(CCC(=O)N[C@@H](CCCCN)C(=O)N(CCC(=O)N[C@@H](CCCCNC(=N)N)C(=O)N(CCC(=O)N[C@@H](CCCCN)C(=O)N(CCC(=O)N[C@@H](CCCCNC(=N)N)C(=O)N(CCC(=O)N[C@@H](CCCCN)C(=O)N(CCC(=O)N[C@@H](CCCCNC(=N)N)C(=O)N(CCC(N)=O)[C@@H](C)c1ccccc1)[C@@H](C)c1ccccc1)[C@@H](C)c1ccccc1)[C@@H](C)c1ccccc1)[C@@H](C)c1ccccc1)[C@@H](C)c1ccccc1)[C@@H](C)c1ccccc1)[C@@H](C)c1ccccc1 [Chimera 4c] | – | 2 log | 140 | approximately 15 μM | immediately depleted of intracellular ATP | 500 | – | MIC values against the clinical strains of E. coli, S. aureus and K. pneumoniae [3, 12]: 2.2 to 9.0 µM; MIC values against the food-borne pathogens L. monocytogenes and Vibro spp. [3, 12]: 1.1 to 2.2 µM
CC(=O)N[C@@H](CCCCNC(=N)N)C(=O)N(CCC(=O)N[C@@H](CCCCNC(=N)N)C(=O)N(CCC(=O)N[C@@H](CCCCNC(=N)N)C(=O)N(CCC(=O)N[C@@H](CCCCNC(=N)N)C(=O)N(CCC(=O)N[C@@H](CCCCNC(=N)N)C(=O)N(CCC(=O)N[C@@H](CCCCNC(=N)N)C(=O)N(CCC(N)=O)[C@@H](C)c1ccccc1)[C@@H](C)c1ccccc1)[C@@H](C)c1ccccc1)[C@@H](C)c1ccccc1)[C@@H](C)c1ccccc1)[C@@H](C)c1ccccc1 [Chimera 2] | caused leakage of ATP | – | – | – | – | – | caused leakage of ATP | decrease in the number of viable bacteria ([8]; at MIC in MHB, within the first hour, 37°C, two independent experiments): 2 log; viable cells after treatment in PBS ([8]; at MIC in PBS, 37°C): no viable cells remained after the first hour; effect on cell number at ¼ MIC ([8]; ¼ MIC in MHB): reduction in cell number; number of viable cells at MIC in MHB ([9]; at MIC in MHB, 37°C, two independent experiments): did not decrease until after 6 hours; decrease in viable cell numbers ([9]; at MIC in PBS, after 4 hours): 2 log
